Measurements from patent publication US6969590B2, “Use of a polypeptide for treatment of pruritus in animals” (Zengen, Inc., priority 2001, dated 2005).
“Also recorded” adds a separate entry of the source.

What was measured:
[1] = tested on: inflammation induced in the ear by picryl chloride; experiment: Picryl chloride-induced ear swelling; format: in vivo, BALB/C mice
Experimental: Female BALB/C mice (Simmons Laboratories), 7 weeks old, were housed at 23-25° C. in groups of no more than 5 per cage [28 cm (L)×18 cm (W)×13 cm (H)]. They were allowed to acclimatize to standard lighting and temperature conditions for at least 1 week, with food and water available ad lib, before the experiment began. Five to ten animals were randomly assigned to each treatment group each test day, and all experiments were repeated at least twice to confirm reproducibility. To reduce error due to slight differences in responses to the irritant of animals from different shipments, tests of each agent were performed as separate experiments in which experimental and control animals were drawn from the same shipment.
In the experiments each animal was anesthetized with 1 mg of pentobarbital sodium solution (50 mg/kg, Nembutal, Abbott Laboratories, Abbott park, Ill.). Baseline ear thickness was measured for both ears with a spring-loaded micrometer (Swiss Precision Instruments, Los Angeles, Calif.). Ear thickness was expressed in units of 10^−3 cm; the average thickness of unstimulated ears was approximately 25-30×10^−3 cm. After baseline measurements were taken, one of six solutions was injected IP. Control animals received 0.2 ml of sterile saline, and experimental animals received Ac-α-MSH (11-13)-NH2, i.e., Ac-Lys-Pro-Val-NH2), Ac[D-Lys^11] α-MSH (11-13)-NH2, Ac[D-Pro^12] α-MSH (11-13)-NH2, Ac[D-Val^13] α-MSH (11-13)-NH2 or Ac-[D-Lys^11, D-Val^13] α-MSH (11-13)-NH2 in the same volume of saline. […] The doses of the tripeptides were 10 μg ([…]), 20 μg ([…]), 40 μg (1.04×10^−7 M), and 80 μg (2.08×10^−7 M). Immediately after saline or α-MSH injection, a micropipette was used to coat both sides of each ear with 10 μl (40 μl per mouse) of a 0.5% picryl chloride (Polysciences, Warrington, Pa.) solution in acetone.
Ear thickness was remeasured 3 and 6 h after picryl chloride application. Swelling was determined by subtracting baseline thickness from the measurements for each ear at 3 and 6 h. The differences for both ears were then averaged for the final analysis.
Repeated-measure ANOVA techniques were used to determine if there was an overall difference among group data for each peptide tested in separate experiments. In those cases in which the ANOVA yielded significant results, Dunnett's test was then used to compare the effects of peptide doses with control (saline) data for each of the two time periods, 3 and 6 h.

[2] = kind of activity not given; cited from earlier work
[3] = tested on: C. albicans; experiment: Horse serum-induced germ tube formation of C. albicans; format: cell-based; conditions: 10^−6M, 60 minutes at 37° C.
Experimental: C. albicans from stationary phase cultures were washed twice with distilled water and suspended in HBSS to a final concentration of 2×10^6/ml. Hyphal growth was induced by addition of 10% inactivated horse serum (GIBCO/BRL, Great Britain) to yeast incubated for 45 minutes at 37° C. with continuous shaking. Horse serum was removed by washing cells twice with HBSS and incubation was continued for 60 minutes at 37° C. in the presence of α-MSH (1-13), α-MSH (6-13) or α-MSH (11-13) at a concentration of 10^−6M with continuous shaking. The percentage of filamentous cells was evaluated under a light microscope with the aid of hemocytometer. Experiments were run in triplicate and at least 200 cells were scored. Photomicrographs were taken with an MC100 camera attached to an Axioskop Zeiss microscope.

[4] = tested on: NO2^−; experiment: Nitrite (NO) production by activated N9 microglia; format: cell-based, murine; conditions: microglia stimulated with LPS+IFN-γ for 24 hr, micromolar concentrations
Experimental: (§1) The N9 clone of murine microglial cells was obtained by immortalization of embryonic brain cultures with the 3RV retrovirus carrying an activated v-myconcogene. N9 cells were cultured in T-75-cm^2 culture flasks (Corning, Cambridge, Mass.) and maintained at 37° C. in a humidified incubator under 5% CO2 atmosphere in RPMI 1640 supplemented with 2 mM L-glutamine, 50 U/mL penicillin G, 50 μg/mL streptomycin sulfate (GIBCO-BBL, Paisley, UK), and 10% heat-inactivated fetal bovine serum (FBS, Hyclone Lab, Inc., Logan, Utah) until experiments were performed. Cells were used between the first and the tenth passage.
(§2) Sub-confluent microglial cells were washed twice with phosphate-buffered saline (PBS) and incubated with trypsin 0.025% and ethylenediaminetetraacetate (EDTA) 0.02% without calcium and magnesium for 3 min. at 37° C. to detach the cells from the culture flask. Cells were then resuspended in medium and incubated in 24-well tissue-culture plates at a concentration of 2×10^5 cells/mL for 16 h in a humidified incubator (37° C., 5% CO2). Growth medium was removed and cell monolayers were stimulated with 10 ng/mL lipopolysaccharide (LPS, from Escherichia coli 055:B5, Sigma Chemical Co., St. Louis, Mo.) plus 1 U/ml, murine IFN-γ (Sigma). To test effects of melanocortin peptides, concentrations (1, 10, 25, 50 and 100 μM) of α-MSH (1-13), α-MSH (11-13), and ACTH (1-24) (Sigma) were dissolved in medium and added to wells 10 min before treatment with LPS+IFN-γ. […] Viability of cells was assessed by trypan blue exclusion for each experimental condition; it was consistently >98%. […]
NO is rapidly oxidized to nitrite (NO2) in culture medium, and nitrite concentration is an indicator of NO production. […] Samples were incubated at room temperature for 10 min and absorbency was measured at 540 nm with the use of a microplate reader. Nitrite concentrations were calculated using a sodium nitrite standard curve.
(§3) Effects of melanocortin peptides on cytokine and NO production were evaluated by repeated measures analysis of variance followed by Dunnet's test for specific comparisons. […]

[5] = tested on: TNF-α; experiment: TNF-α production by activated N9 microglia; format: cell-based, murine; conditions: microglia stimulated with LPS+IFN-γ for 24 hr, micromolar concentrations
Experimental: as §1, §2
(§4) TNF-α bioactivity was measured in supernatants of cell cultures by standard cytotoxicity assay using L929 cells and recombinant human TNF-α (Sigma) as standard. […] IL-6 was measured using a commercial murine enzyme-linked immunosorbent assay (ELISA: RPN 2714, Amersham, Little Chalfont, UK).
as §3

[6] = tested on: cAMP; experiment: cAMP accumulation in N9 cells; format: cell-based, murine; conditions: resting cells and cells incubated with LPS+IFN-γ
Experimental: cAMP accumulation in N9 cells was measured as previously described. Briefly, cells in six-well plates were co-incubated at 37° C. with (1) medium; (2) forskolin (100 μM); (3) LPS (10 ng/mL)+IFN-γ (1 U/mL); (4) α-MSH (1-13) or α-MSH (11-13) (1, 10, 50 μM); (5) LPS+IFN-γ and either α-MSN (1-13) or α-MSH (11-13) (10 μM). Reactions were stopped after 3 min by aspirating supernatants, immediately adding 1 mL ethanol at −20° C. and freezing. cAMP content in the ethanol-soluble fraction was measured using an enzyme immunoassay kit (Amersham).

[7] = tested on: C. albicans; experiment: C. albicans colony forming units (candidacidal activity); format: cell-based
Experimental: C. albicans (1×10^6/ml in HBSS) was incubated in the presence or absence or α-MSH (1-13) or α-MSH (11-13) at concentrations in the range of 10^−15 M to 10^−6 M for 2 hours at 37° C. Cells were then washed in cold distilled water and diluted with HBSS to a concentration of 100 organisms/ml. One-ml aliquots were dispensed on blood agar plates and incubated for 48 hours at 37° C. Organism viability was estimated from the number of colonies formed. In subsequent experiments using familiar procedures we compared activity of α-MSH (4-10), α-MSH (6-13), α-MSH (11-13), ACTH (1-39), (18-39) and fluconazole, the latter an established antifungal agent. Melanocortin peptides and fluconazole were tested in concentrations of 10^−6 M to 10^−4 M. There were at least six replicates for each concentration of peptide.

[8] = tested on: IL-6; experiment: IL-6 production by activated N9 microglia; format: cell-based, murine; conditions: microglia stimulated with LPS+IFN-γ for 24 hr, micromolar concentrations
Experimental: as §1, §2, §4, §3

[9] = tested on: human neutrophils; experiment: C. albicans killing by human neutrophils; format: cell-based; conditions: 2 hours at 37° C., vs. medium
Experimental: Venous blood (20 ml) from healthy volunteers was anticoagulated with heparin. Neutrophils were isolated using dextran sedimentation and Ficoll-Hypaque (Sigma Chemical Co., St. Louis, Mi., USA) centrifugation. Erythrocytes were lysed via hypotonic shock. Neutrophils represented at least 97% of the cell suspension. Cell viability, estimated by trypan blue exclusion, was >98%. Neutrophils were suspended to a final concentration in HBSS. C. albicans (1×10^6) were opsonized with human AB serum in a shaking water bath for 30 minutes at 37° C. Organisms were then incubated with neutrophils in medium or in medium with α-MSH (1-13) or α-MSH (11-13) in concentrations of 10^−15 M to 10^−4 M in a shaking water bath for 2 hours at 37° C. After incubation, the culture tubes were placed on ice to stop growth and extracellular organisms were washed twice with centrifugation at 1000×g at 4° C. A 2.5% sodium desoxycholoate solution was added to obtain a suspension of 10^6 cells/ml. Two 1/100 serial dilutions in HBSS were made to obtain a final suspension of 100 cells/ml. Aliquots of 1 ml were dispensed on blood agar plates and incubated for 48 hours at 37° C. Colony forming units (CFUs) were counted at the end of the incubation period. Experiments were run in triplicate and repeated using blood from 5 different donors.

[10] = tested on: TNF-α and iNOS mRNA; experiment: Northern blot of TNF-α and iNOS mRNA in activated microglia; format: cell-based, murine
Experimental: Total cellular RNA was extracted from 10^6 adherent microglial cells plated in six-well tissue culture plates (Corning). Electrophoresis of RNA samples (10 μg/lane) was performed in 1% agarose/2.2 M formaldehyde gels and the gels subsequently blotted onto nylon filters by capillary action and baked for 2 h before prehybridization. The cDNA fragments encoding murine TNF-α and mouse macrophage iNOS were ^32P-labeled using the Ready-To-Go DNA Labeling Kit (Pharmacia, Uppsala, Sweden) before hybridization of nylon filters and autoradiography. Blots were subsequently rehybridized with human glyceraldehyde-3-phosphate dehydrogenase (G-3-PDH) cDNA probe as an internal control (Clontech Laboratories, Inc., Palo Alto, Calif.).

[11] = tested on: fever; conditions: relative to parent peptide or to the 11-13 sequence; cited from earlier work

## Ac-[D-Lys^11]α-MSH (11-13)-NH2
[1]; 10 μg IP, 3 h
  % Inhibition of swelling: 23%
[1]; 10 μg IP, 6 h
  % Inhibition of swelling: 17%
[1]; 20 μg IP, 3 h
  % Inhibition of swelling: 25%
[1]; 20 μg IP, 6 h
  % Inhibition of swelling: 16%
[1]; 40 μg IP, 3 h
  % Inhibition of swelling: 35%
[1]; 40 μg IP, 6 h
  % Inhibition of swelling: 37%
[1]; 80 μg IP, 3 h
  % Inhibition of swelling: 34%
[1]; 80 μg IP, 6 h
  % Inhibition of swelling: 29%
[1]; 10-80 μg IP, 3 and 6 h
  overall effect on ear inflammation (ANOVA): significantly reduced inflammation
[2]
  general potency relative to L-form tripeptide: same general potency as the L-form of the tripeptide α-MSH (11-13)

## Lys-Pro-Val (KPV; Designed polypeptide with anti-inflammatory, anti-bacterial, anti-fungal and antipyretic properties.) [α-MSH (11-13), C-terminal tripeptide KPV of α-MSH]
[3]
  reduction in the number of filamentous cells (inhibition of germination): 54-58%
[4]
  reduction of production of NO2^−: 40%
[5]
  reduction of production of TNF-α: 45%
[6]
  cAMP accumulation: increased cAMP accumlation
[7]; 10^−4M melanocortin peptides
  relative potency in reducing C. albicans viability: the most effective
[7]; 2 hours at 37° C., vs. control
  effect on C. albicans colony forming units (CFU): greatly reduced; also recorded: significantly decreased C. albicans colony forming units; also recorded: inhibitory effect
[8]
  reduction of production of IL-6: 50%
[9]
  killing of C. albicans by human neutrophils: enhanced the killing
[10]
  mRNA for TNF-α and iNOS (Northern blot): inhibition of mRNA transaction for TNF-α and iNOS

## [Nle^4, D-Phe^7]-α-MSH
[11]
  antipyretic potency: approximately ten times more potent than the parent peptide in reducing fever
